Measured values from article PMC7508583, “Discovery and Preclinical Development of Antigiardiasis Fumagillol Derivatives” (Antimicrobial Agents and Chemotherapy, 2020).
Values after ≈ are worked out from the molar mass of the structure shown. Like-named read-outs stand apart in the source and are kept apart here.

What was measured:
[1] = tested on: metronidazole-resistant G. lamblia 713M3; experiment: Trophozoite viability MLC determination; format: cell-based, Giardia lamblia; settings: metronidazole-resistant strain; 3 days treatment, 3 days proliferation
Description: (§1) The inhibition of metabolism enables the organism to resume proliferation once treatment is completed. To discriminate between the lethality of the promising compounds and the induction of metabolic inactivity by the promising compounds, the minimum lethal concentration (MLC) values were determined by treating the trophozoites with the test compounds for 3 days and transferring the resulting cultures to medium lacking the compounds for 3 days of proliferation. This assay was described previously for G. lamblia ([18]) and was adapted to E. histolytica in the current study.
(§2) Trophozoites of G. lamblia isolates WB and GS were grown anaerobically in borosilicate glass screw-cap culture tubes (Fisher Scientific) at pH 7.0 in Keister’s modified TYI-S-33 medium (ATCC). The medium was supplemented with 10% heat-inactivated bovine serum (Sigma-Aldrich) and 0.05% bovine bile (Sigma-Aldrich). To attain low-oxygen-tension conditions, the tubes were filled to 85% to 90% of their total volume capacity and incubated without shaking at 37°C. Subcultures (2 × 10^5 trophozoites per tube) were made three times a week. Detachment of trophozoites for inoculation was achieved by chilling the cultures on ice for 20 min. Culturing and detachment of metronidazole-resistant G. lamblia assemblage A 713M3 and assemblage B 1279-M1 trophozoites followed the same protocol, except that the growth medium was supplemented with metronidazole, with the concentration gradually being increased to 10 μM.
(§3) Compounds were prepared by 2-fold serial dilutions in growth medium containing 0.5% DMSO (diluted from a starting concentration of 1 μM to 12 concentrations for all compounds except metronidazole, fumagillol, and TNP-470, which were diluted from 100 μM), and 100 μl/well was transferred in duplicate to the 96-well culture plate. Ten microliters of G. lamblia trophozoites was plated at a density of 10,000 cells/well. The plates were incubated under anaerobic condition in a BD GasPak EZ container system (BD Diagnostics) at 37°C for 72 h and surveyed visually under a microscope to check trophozoite survival, mobility, and attachment. […] The tubes were incubated under anaerobic condition for 3 days at 37°C and checked under a microscope. The MLC value was the concentration in the tube with the lowest compound concentration without any live organism.

[2] = tested on: metronidazole-resistant G. lamblia 1279-M1; experiment: Trophozoite viability MLC determination; format: cell-based, Giardia lamblia; settings: metronidazole-resistant strain; 3 days treatment, 3 days proliferation
Description: as §1, §2, §3

[3] = tested on: E. histolytica HM1:IMSS trophozoites; experiment: Trophozoite viability MLC determination (ameba assay); format: cell-based, Entamoeba histolytica; settings: 3 days treatment, 3 days proliferation without drug
Description: The inhibition of metabolism enables the organism to resume proliferation once treatment is completed. To discriminate between the lethality of the promising compounds and the induction of metabolic inactivity by the promising compounds, the minimum lethal concentration (MLC) values were determined by treating the trophozoites with the test compounds for 3 days and transferring the resulting cultures to medium lacking the compounds for 3 days of proliferation. This assay was described previously for G. lamblia ([18]) and was adapted to E. histolytica in the current study. In addition to measuring MLC values in the G. lamblia WB and GS strains and in E. histolytica, the MLCs were also measured in metronidazole-resistant G. lamblia strains 713M3 and 1279-M1, to confirm that these compounds were also effective when the metronidazole resistance mechanism evolved. […] Thus, even though fumagillin is a potent anti-G. lamblia drug, it might act in part by metabolic inhibition. Fumagillin’s IC50 and MLC values in E. histolytica were within the same range, supporting the true killing mechanism.
E. histolytica strain HM1:IMSS trophozoites were grown at 37°C in TYI-S-33 medium supplemented with penicillin (100 U/ml) and streptomycin sulfate (100 μg/ml) ([65]). Trophozoites were grown anaerobically in borosilicate tubes or T25 flasks, and subcultures were made 1 to 2 times a week. Trophozoites were detached for inoculation by chilling the cultures on ice for 20 min.
For the MLC assay, compounds were prepared as described above by 2-fold serial dilutions in fresh growth medium, and 50 μl was transferred into the wells of a 96-well plate in duplicate. Confluent E. histolytica trophozoites were diluted in growth medium to a density of 200 cells/μl. Fifty-microliter cultures were distributed in each well to bring the total assay volume to 100 μl. The plates were kept under an anaerobic environment for 72 h at 37°C. Each well was surveyed under a microscope to visualize trophozoite survival, mobility, and attachment. In all cases, duplicate measurements yielded identical growth/death transitions. The plates were chilled on ice for 30 min, and the entire content of each of 4 wells within the growth/death transition of one of the duplicate experiments was transferred for proliferation into 8-ml tubes containing growth medium and no drug. The tubes were incubated under anaerobic condition for 3 days at 37°C and checked under a microscope. The MLC value was the concentration in the tube with the lowest compound concentration without any live organism.

[4] = tested on: G. lamblia WB trophozoites; experiment: Trophozoite growth inhibition, ATP content (ATPlite) assay; format: cell-based; settings: Giardia duodenalis, 72 h, read-out: Mean [IC50 ± SE(IC50)] G. lamblia WB
Description: Antigiardia assays followed by enzyme inhibition determination facilitated the selection of compounds for permeation and stability studies by in vitro methods, prior to advancing to in vivo studies. Compound potency was evaluated first by measuring G. lamblia trophozoite growth as a function of the compound concentration and calculating the IC50 values. Potency in Entamoeba histolytica trophozoites was also determined because of the early report that fumagillin cured amebiasis ([19]). The intent was to test whether the compounds would be suitable to treat gastrointestinal amebiasis rather than the invasive form of the disease, given that the designed strategy was based on reducing compound permeation across the epithelial cell barrier. […] Trophozoite growth was determined by monitoring the ATP cell content using a high-throughput homogeneous assay developed previously for G. lamblia ([57]). The ATP content serves as a marker of cell integrity since ATP degrades rapidly when cells die and the luminescence signal generated by luciferase requires ATP. The same assay was also adopted in 96-well plates for E. histolytica trophozoite growth measurement, as described in Materials and Methods. A similar E. histolytica trophozoite ATP content assay was described previously ([58]). Fumagillin, TNP-470, and a standard-of-care drug (metronidazole) served as positive controls, and cells without the drug (in the presence of 0.5% dimethyl sulfoxide [DMSO]) served as the negative control.
as §2
The growth inhibition assays were performed in duplicate, once for each compound, for all compounds except fumagillin, which served as a positive control and whose inhibitory ability was measured multiple times as new sets of compounds were tested. All dry compounds except for fumagillin were dissolved in dimethyl sulfoxide (DMSO; Sigma) at a stock concentration of 10 mM and then diluted 1:100 in growth medium to a final compound concentration of 100 μM; fumagillin was diluted to 20 μM. Compound solution aliquots (100 μl) were prepared by 3-fold serial dilutions in growth medium containing 0.5% DMSO and distributed into 96-well assay plates. This was followed by the addition of 10 μl G. lamblia or E. histolytica culture containing 10,000 trophozoites. Fumagillin served as a positive control, and the medium-diluted DMSO alone served as a negative control. The assay plates were placed in a BD GasPak EZ container system (BD Diagnostics) to create an anaerobic growth environment. The sealed containers were incubated at 37°C for 72 h. Following incubation, 70 μl/well of the ATPlite reagent (PerkinElmer) was added to the assay plates for one-step lysis and ATP level detection. The luminescent signals of the assay plates were measured on an EnSpire 2300 plate reader (PerkinElmer). Concentration-response titration points for each compound were fitted to a 4-parameter logistic nonlinear regression model using the KaleidaGraph tool, yielding the IC50 value and standard error (SE).

[5] = trophozoite growth, ATP content

COC1C(OC(=O)NC(=O)CN2CCOCC2)CCC2(CO2)C1C1(C)OC1CC=C(C)C (centres unmarked) [Compound 3]
MLC G. lamblia 713M3 [1]: 3.9 nM (≈ 1.76 ng/mL)
MLC G. lamblia 1279-M1 [2]: 0.98 nM (≈ 0.443 ng/mL)
MLC E. histolytica HM:IMSS [3]: 3.9 nM (≈ 1.76 ng/mL)
IC50 [4, 5]: 1.6 ± 0.1 nM

COC1C(OC(=O)NC(=O)CN2CCC(O)CC2)CCC2(CO2)C1C1(C)OC1CC=C(C)C (centres unmarked) [Compound 4]
MLC G. lamblia 713M3 [1]: 3.9 nM (≈ 1.82 ng/mL)
MLC G. lamblia 1279-M1 [2]: 7.8 nM (≈ 3.64 ng/mL)
MLC E. histolytica HM:IMSS [3]: 7.8 nM (≈ 3.64 ng/mL)
IC50 [4, 5]: 6.8 ± 0.3 nM

CO[C@@H]1[C@H](OC(=O)Nc2ccc(C(=O)O)cc2)CC[C@]2(CO2)[C@H]1[C@@]1(C)O[C@@H]1CC=C(C)C [Compound 9, 4-(((((3R,4S,5S,6R)-5-methoxy-4-((2R,3R)-2-methyl-3-(3-methylbut-2-en-1-yl)oxiran-2-yl)-1-oxaspiro[2.5]octan-6-yl)oxy)carbonyl)amino)benzoic acid]
MLC G. lamblia 713M3 [1]: 7.8 nM (≈ 3.47 ng/mL)
MLC G. lamblia 1279-M1 [2]: 7.8 nM (≈ 3.47 ng/mL)
MLC E. histolytica HM:IMSS [3]: 31.3 nM (≈ 13.9 ng/mL)
IC50 [4, 5]: 6.3 ± 0.7 nM

CCOC(=O)Cc1ccc(NC(=O)OC2CCC3(CO3)C(C3(C)OC3CC=C(C)C)C2OC)cc1 (centres unmarked) [Compound 11]
MLC E. histolytica HM:IMSS [3]: 125 nM (≈ 60.9 ng/mL)
IC50 [4, 5]: 7.4 ± 1.3 nM

COC1C(OC(=O)N2CCC(O)CC2)CCC2(CO2)C1C1(C)OC1CC=C(C)C (centres unmarked) [Compound 16]
MLC G. lamblia 713M3 [1]: 1.95 nM (≈ 0.799 ng/mL)
MLC G. lamblia 1279-M1 [2]: 7.8 nM (≈ 3.19 ng/mL)
MLC E. histolytica HM:IMSS [3]: 3.9 nM (≈ 1.6 ng/mL)
IC50 [4, 5]: 2.6 ± 0.2 nM

CO[C@@H]1[C@H](OC(=O)/C=C/C=C/C=C/C=C/C(=O)O)CC[C@]2(CO2)[C@H]1[C@@]1(C)O[C@@H]1CC=C(C)C [Fumagillin, reference compound]
MLC G. lamblia 713M3 [1]: 250 nM (≈ 115 ng/mL)
MLC G. lamblia 1279-M1 [2]: 125 nM (≈ 57.3 ng/mL)
MLC E. histolytica HM:IMSS [3]: 78 nM (≈ 35.8 ng/mL)
IC50 [4]: 9.5 ± 2.2 nM

Cc1ncc([N+](=O)[O-])n1CCO [Metronidazole, reference compound]
MLC G. lamblia 713M3 [1]: 100,000 nM
MLC G. lamblia 1279-M1 [2]: 100,000 nM
MLC E. histolytica HM:IMSS [3]: 1,500 nM
IC50 [4, 5]: 5570 ± 877 nM
